Assay results from patent US20070248996A1, “Modulators of beta-amyloid peptide aggregation comprising D-amino acids” (Paraecis Pharmaceuticals, Inc., priority 1995, published 2007).
Square brackets hold non-standard residues; d marks the D form. Peptide text beside a SMILES is read from it. * marks the point of attachment. Isoquinolin(3-yl)carbonyl = O=C(c1cc2ccccc2cn1)*; Quinoline4carbonyl = O=C(c1ccnc2ccccc12)*; Acetyl(3-pyridyl) = O=C(Cc1cccnc1)*; Acetyl(4-pyridyl) = O=C(Cc1ccncc1)*; Benzoyl(4-OH) = O=C(c1ccc(O)cc1)*; d3Pal = N[C@H](Cc1cccnc1)C(=O)O; Isonicotinoyl = O=C(c1ccncc1)*; X1 = O=C(c1cc2cc(O)ccc2cc1O)*; X5 = O=C(c1nccc2ccccc12)*

Target: Aβ1-40 (Homo sapiens, UniProt P05067)
Sequence (P05067 672-711): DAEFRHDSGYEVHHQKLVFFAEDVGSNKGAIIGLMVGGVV
Type: biochemical
Parameters: ΔLag: unit not given here
Details: Table IV; hydrophobic modifying groups; 5 μM test compound
Description: The nucleation assay is employed to determine the ability of test compounds to alter (e.g. inhibit) the early events in formation of β-AP fibers from monomeric β-AP. Characteristic of a nucleated polymerization mechanism, a lag time is observed prior to nucleation, after which the peptide rapidly forms fibers as reflected in a linear rise in turbidity. The time delay before polymerization of β-AP monomer can be quantified as well as the extent of formation of insoluble fiber by light scattering (turbidity). Polymerization reaches equilibrium when the maximum turbidity reaches a plateau The turbidity of a solution of natural β-AP in the absence or presence of various concentrations of a β-amyloid modulator compound is determined by measuring the apparent absorbance of the solution at 405 nm (A405 nm) over time. The threshold of sensitivity for the measurement of turbidity is in the range of 15-20 μM β-AP. […] This assay can be performed using stirring or shaking to accelerate polymerization, thereby increasing the speed of the assay. Moreover the assay can be adapted to a 96-well plate format to screen multiple compounds.
HFIP-solubilized peptide is sonicated in a waterbath sonicator for 5 min at highest setting, then evaporated to dryness under a stream of argon. The peptide film is resuspended in anhydrous dimethylsulfoxide (DMSO) at a concentration of 6.9 mg/ml (25× concentration), sonicated for 5 min as before, then filtered through a 0.2 micron nylon syringe filter (VWR cat. No.28196-050). Test compounds are dissolved in DMSO at a 100× concentration. […] Ten microliters of the mixture is then added to the bottom of a well of a Corning Costar ultra low binding 96-well plate (Coming Costar, Cambridge Mass.; cat. No. 2500). Ninety microliters of water is added to the well, the plate is shaken on a rotary shaken at a constant speed at room temperature for 30 seconds, an additional 100 μl of 2× PTL buffer (20 mM NaH2PO4, 300 mM NaCl, pH 7.4) is added to the well, the plate is reshaken for 30 seconds and a baseline (t=0) turbidity reading is taken by measuring the apparent absorbance at 405 nm using a Bio-Rad Model 450 Microplate Reader. The plate is then returned to the shaker and shaken continuously for 5 hours. Turbidity readings are taken at 15 minute intervals.
β-amyloid aggregation in the absence of any modulators results in enhanced turbidity of the natural β-AP solution (i.e., an increase in the apparent absorbance at 405 nm over time). […]

Row | Compound | ΔLag 5 μM
1 | 1-Adamantanecarbonyl-d(LVFF)-nh2 [PPI-492] | 1.1
2 | 4-Methylvaleryl-d(LVFFA)-nh2 [PPI-524] | 1.6

Same assay, conditions: Table IX; 5 μM test compound

Row | Compound | ΔLag 5 μM
3 | 2,4-Dihydroxybenzoyl-d(LVFFA)-nh2 [PPI-532] | 1.7
4 | 2-Formylphenoxyacetyl-d(LVFFA)-nh2 [PPI-554] | 2.6
5 | 2-Hydroxycinnamoyl-d(LVFFA)-nh2 [PPI-536] | 1.4
6 | 3,4-Dihydroxycinnamoyl-d(AFFVL)-nh2 [PPI-569] | 2.6
7 | 3,4-Dihydroxycinnamoyl-d(LFFVL)-nh2 [PPI-593] | 2.0
8 | 3,4-Dihydroxycinnamoyl-d(LVFFA)-nh2 [PPI-543] | 1.6
9 | 3,5-Dihydroxy-2-naphthoyl-d(AFFVL)-nh2 [PPI-568] | >6
10 | 3,7-Dihydroxy-2-naphthoyl-d(FFFVL)-nh2 [PPI-650] | 2.2
11 | 3,7-Dihydroxy-2-naphthoyl-d(LFFVL)-nh2 [PPI-648] | 3.1
12 | 3-(2-Hydroxyphenyl)propionyl-d(AFFVL)-nh2 [PPI-610] | 4.5
13 | 3-(2-Hydroxyphenyl)propionyl-d(FFVL)-nh2 [PPI-615] | 2.0
14 | 3-(4-Hydroxyphenyl)propionyl-d(FFVL)-nh2 [PPI-616] | 1.5
15 | 3-Formylbenzoyl-d(LVFFA)-nh2 [PPI-546] | 1.9
16 | 3-Hydroxycinnamoyl-d(LVFFA)-nh2 [PPI-538] | 2.0
17 | 3-Hydroxyphenylacetyl-d(LVFF)-nh2 [PPI-483] | 2.9
18 | 4-(2-Hydroxyphenyl)propionyl-d(AFFVL)-nh2 [PPI-611] | 3.2
19 | 4-Hydroxy-3-methoxycinnamoyl-d(LVFFA)-nh2 [PPI-555] | 1.7
20 | 4-Hydroxybenzoyl-d(AFFVL)-nh2 [PPI-629] | 2.9
21 | 4-Hydroxybenzoyl-d(LFFFL)-nh2 [PPI-643] | 2.2
22 | 4-Hydroxycinnamoyl-d(AFFVL)-nh2 [PPI-587] | 3.7
23 | 4-Hydroxycinnamoyl-d(LVFFA)-nh2 [PPI-537] | 1.6
24 | 4-Hydroxyphenylacetyl-d(FFFVL)-nh2 [PPI-651] | 2.1
25 | 4-Hydroxyphenylacetyl-d(LFFVL)-nh2 [PPI-649] | 5.1
26 | 5-Hydantoinacetyl-d(LVFFA)-nh2 [PPI-539] | 2.4

Same assay, conditions: Table V; hydroxylated and oxygenated modifying groups; 5 μM test compound

Row | Compound | ΔLag 5 μM
27 | 2,4-Dihydroxybenzoyl-d(LVFF)-nh2 [PPI-486] | 1.2
28 | 2-Hydroxyphenylacetyl-d(LVFF)-nh2 [PPI-481] | 2.0
29 | 3,4-Dihydroxycinnamoyl-d(LVFF)-nh2 [PPI-491] | 3.0
30 | 3,5-Dihydroxy-2-naphthoyl-d(LVFF)-nh2 [PPI-487] | 2.2
31 | 3,5-Dihydroxy-2-naphthoyl-d(LVFFA)-nh2 [PPI-523] | 3.8
32 | 3-Hydroxyphenylacetyl-d(LVFF)-nh2 [PPI-483] | 2.2
33 | 4-Hydroxycinnamoyl-d(LVFFA)-nh2 [PPI-537] | 1.0

Same assay, conditions: Table VIII; 5 μM test compound

Row | Compound | ΔLag 5 μM
34 | 3,5-Dihydroxy-2-naphthoyl-d(LVFFA)-nh2 [PPI-523] | 2.1
35 | 3,7-Dihydroxy-2-naphthoyl-d(LVFFA)-nh2 [PPI-548] | 2.5
36 | 4-Hydroxyphenylacetyl-d(LVFFA)-nh2 [PPI-559] | 3.5

Same assay, conditions: Table XI; 0.5 μM test compound

Row | Compound | ΔLag
37 | CC(C)C[C@@H](N)C(=O)N[C@@H](C(=O)N[C@H](Cc1ccccc1)C(=O)N[C@H](Cc1ccccc1)C(=O)N[C@H](Cc1ccccc1)C(N)=O)C(C)C [PPI-656, H-d(LVFFF)-nh2] (H-[dL][dV][dF][dF][dF]-NH2) | 2.3
38 | CC(C)C[C@@H](N)C(=O)N[C@@H](C(=O)N[C@H](Cc1ccccc1)C(=O)N[C@H](Cc1ccccc1)C(=O)N[C@@H](C(N)=O)C(C)C)C(C)C [PPI-657, H-d(LVFFV)-nh2] (H-[dL][dV][dF][dF][dV]-NH2) | 1.7
39 | CC(C)C[C@@H](NC(=O)[C@H](NC(=O)[C@@H](Cc1ccccc1)NC(=O)[C@@H](Cc1ccccc1)NC(=O)[C@@H](Cc1cccnc1)NC(=O)c1cc2cc(O)ccc2cc1O)C(C)C)C(N)=O [PPI-664, 3,7-Dihidroxy-2-naphthol-d(Pal-FFVL)-nh2] (X1-[d3Pal][dF][dF][dV][dL]-NH2) | 0
40 | CC(C)C[C@@H](NC(=O)[C@H](NC(=O)[C@@H](Cc1ccccc1)NC(=O)[C@@H](Cc1ccccc1)NC(=O)[C@@H](Cc1cccnc1)NC(=O)c1ccc(O)cc1)C(C)C)C(N)=O [PPI-665, 4-Hydroxybenzoyl-d(Pal-FFVL)-nh2] ({Benzoyl(4-OH)}-[d3Pal][dF][dF][dV][dL]-NH2) | 1.5

Same assay, conditions: Table XI; 2.5 μM test compound

Row | Compound | ΔLag
41 | CC(C)C[C@@H](NC(=O)[C@H](NC(=O)[C@@H](Cc1ccccc1)NC(=O)[C@@H](Cc1ccccc1)NC(=O)[C@@H](C)NC(=O)Cc1ccncc1)C(C)C)C(N)=O [PPI-741, 4-Pyridylacetyl-d(AFFVL)-nh2] ({Acetyl(4-pyridyl)}-[dA][dF][dF][dV][dL]-NH2) | 2.0

Same assay, conditions: Table XI; 5 μM test compound

Row | Compound | ΔLag
42 | CC(C)C[C@@H](N)C(=O)N[C@@H](C(=O)N[C@H](Cc1ccccc1)C(=O)N[C@H](Cc1ccccc1)C(=O)N[C@H](Cc1ccccc1)C(N)=O)C(C)C [PPI-656, H-d(LVFFF)-nh2] (H-[dL][dV][dF][dF][dF]-NH2) | >2.5
43 | CC(C)C[C@@H](N)C(=O)N[C@@H](C(=O)N[C@H](Cc1ccccc1)C(=O)N[C@H](Cc1ccccc1)C(=O)N[C@@H](C(N)=O)C(C)C)C(C)C [PPI-657, H-d(LVFFV)-nh2] (H-[dL][dV][dF][dF][dV]-NH2) | >10
44 | CC(C)C[C@@H](NC(=O)[C@H](NC(=O)[C@@H](Cc1ccccc1)NC(=O)[C@@H](Cc1ccccc1)NC(=O)[C@@H](Cc1cccnc1)NC(=O)c1cc2cc(O)ccc2cc1O)C(C)C)C(N)=O [PPI-664, 3,7-Dihidroxy-2-naphthol-d(Pal-FFVL)-nh2] (X1-[d3Pal][dF][dF][dV][dL]-NH2) | 2
45 | CC(C)C[C@@H](NC(=O)[C@H](NC(=O)[C@@H](Cc1ccccc1)NC(=O)[C@@H](Cc1ccccc1)NC(=O)[C@@H](Cc1cccnc1)NC(=O)c1ccc(O)cc1)C(C)C)C(N)=O [PPI-665, 4-Hydroxybenzoyl-d(Pal-FFVL)-nh2] ({Benzoyl(4-OH)}-[d3Pal][dF][dF][dV][dL]-NH2) | 2
46 | CC(C)C[C@@H](NC(=O)[C@H](NC(=O)[C@@H](Cc1ccccc1)NC(=O)[C@@H](Cc1ccccc1)NC(=O)[C@@H](C)NC(=O)Cc1cccnc1)C(C)C)C(N)=O [PPI-730, 3-Pyridylacetyl-d(AFFVL)-nh2] ({Acetyl(3-pyridyl)}-[dA][dF][dF][dV][dL]-NH2) | 2
47 | CC(C)C[C@@H](NC(=O)[C@H](NC(=O)[C@@H](Cc1ccccc1)NC(=O)[C@@H](Cc1ccccc1)NC(=O)[C@@H](C)NC(=O)c1ccncc1)C(C)C)C(N)=O [PPI-732, Isonicotinoyl-d(AFFVL)-nh2] (Isonicotinoyl-[dA][dF][dF][dV][dL]-NH2) | <2
48 | CC(C)C[C@@H](NC(=O)[C@H](NC(=O)[C@@H](Cc1ccccc1)NC(=O)[C@@H](Cc1ccccc1)NC(=O)CN)C(C)C)C(N)=O [PPI-733, H-Glycyl-d(FFVL)-nh2] (H-G[dF][dF][dV][dL]-NH2) | 0
49 | CC(C)C[C@@H](NC(=O)[C@H](NC(=O)[C@@H](Cc1ccccc1)NC(=O)[C@@H](Cc1ccccc1)NC(=O)[C@@H](C)NC(=O)CN)C(C)C)C(N)=O [PPI-734, H-Glycyl-d(AFFVL)-nh2] | >10
50 | CC(C)C[C@@H](NC(=O)[C@H](NC(=O)[C@@H](Cc1ccccc1)NC(=O)[C@@H](Cc1ccccc1)NC(=O)[C@@H](C)NC(=O)c1ccnc2ccccc12)C(C)C)C(N)=O [PPI-746, 4-Quinolinecarboxyl-d(AFFVL)-nh2] (Quinoline4carbonyl-[dA][dF][dF][dV][dL]-NH2) | 2
51 | CC(C)C[C@@H](NC(=O)[C@H](NC(=O)[C@@H](Cc1ccccc1)NC(=O)[C@@H](Cc1ccccc1)NC(=O)[C@@H](C)NC(=O)c1nccc2ccccc12)C(C)C)C(N)=O [PPI-748, 1-Isoquinolinecarboxyl-d(AFFVL)-nh2] (X5-[dA][dF][dF][dV][dL]-NH2) | <3
52 | CC(C)C[C@@H](NC(=O)[C@H](NC(=O)[C@@H](Cc1ccccc1)NC(=O)[C@@H](Cc1ccccc1)NC(=O)[C@@H](C)NC(=O)c1cc2ccccc2cn1)C(C)C)C(N)=O [PPI-749] ({Isoquinolin(3-yl)carbonyl}-[dA][dF][dF][dV][dL]-NH2) | 3
53 | CC(C)C[C@@H](NC(=O)c1ccc(O)cc1)C(=O)N[C@@H](C(=O)N[C@H](Cc1ccccc1)C(=O)N[C@H](Cc1ccc(O)cc1)C(=O)N[C@H](C)C(N)=O)C(C)C [PPI-772, 4-Hydroxybenzoyl-d(LVFYA)-nh2] ({Benzoyl(4-OH)}-[dL][dV][dF][dY][dA]-NH2) | 2
54 | CC(C)C[C@@H](NC(=O)c1ccc(O)cc1)C(=O)N[C@@H](C(=O)N[C@H](Cc1ccc(O)cc1)C(=O)N[C@H](Cc1ccccc1)C(=O)N[C@H](C)C(N)=O)C(C)C [PPI-774, 4-Hydroxybenzoyl-d(LVYFA)-nh2] ({Benzoyl(4-OH)}-[dL][dV][dY][dF][dA]-NH2) | 1
